Values quoted from earlier work as cited in patent publication US8895729B2, “Process for making thienopyrimidine compounds” (Genentech, Inc., priority 2012, dated 2014).
pIC50: −log10 of the molar value.

Assays:
[1] = tested on: MCF7-neo/HER2 cell line
[2] = tested on: receptor screening assay (n=68); details: GDC-0980=10 microM
[3] = tested on: MCF7.1 E545K breast xenograft; details: mouse MCF7.1 E545K breast xenograft; 25 to 150 mg/kg qd po
[4] = tested on: MDA-MB-361.1 breast cancer xenograft
[5] = not given; remark: listed apart in the source
[6] = single oral dose
[7] = tested on: PC3 PTEN-prostate xenograft; details: mouse PC3 PTEN- prostate xenograft; 25 to 150 mg/kg qd po
[8] = tested on: xenograft cancer models; breast, ovarian, lung, and prostate

Cc1c(CN2CCN(C(=O)[C@H](C)O)CC2)sc2c(N3CCOCC3)nc(-c3cnc(N)nc3)nc12 [GDC-0980, (S)-1-(4-((2-(2-aminopyrimidin-5-yl)-7-methyl-4-morpholinothieno[3,2-d]pyrimidin-6-yl)methyl)piperazin-1-yl)-2-hydroxypropan-1-one]
pIC50 [1]: 6.49 | responses in a receptor screening assay [2]: did not elicit significant responses | efficacy in xenograft model [3]: efficacious | stability in human hepatocytes: stable | minimum dose producing significant growth inhibition [4]: 1.0 mg/kg QD | stability in human microsomes [5]: stable | AUC dose dependence [6]: dose-proportional increases | Cmax dose dependence [6]: dose-proportional increases | efficacy in xenograft model [7]: efficacious | activity in preclinical xenograft cancer models [8]: broad activity
